The values that follow come from article PMC5666312, “Profiling MHC II immunopeptidome of blood‐stage malaria reveals that cDC1 control the functionality of parasite‐specific CD4 T cells” (EMBO Molecular Medicine, 2017).

In this experiment the target is T1, I‐A^b MHC II molecules (Mus musculus, UniProt P14434+P14483).
T1 construct: endogenous in cells; host or cells: mouse B-cell lymphoma LB27.4
T1 sequence (P14434 24-256): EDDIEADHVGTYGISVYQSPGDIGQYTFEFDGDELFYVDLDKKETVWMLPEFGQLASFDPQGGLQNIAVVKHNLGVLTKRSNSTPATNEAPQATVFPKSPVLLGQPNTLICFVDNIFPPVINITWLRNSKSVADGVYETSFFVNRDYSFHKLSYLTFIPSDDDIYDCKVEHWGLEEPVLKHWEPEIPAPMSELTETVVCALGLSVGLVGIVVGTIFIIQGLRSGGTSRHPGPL
T1 sequence (P14483 28-265): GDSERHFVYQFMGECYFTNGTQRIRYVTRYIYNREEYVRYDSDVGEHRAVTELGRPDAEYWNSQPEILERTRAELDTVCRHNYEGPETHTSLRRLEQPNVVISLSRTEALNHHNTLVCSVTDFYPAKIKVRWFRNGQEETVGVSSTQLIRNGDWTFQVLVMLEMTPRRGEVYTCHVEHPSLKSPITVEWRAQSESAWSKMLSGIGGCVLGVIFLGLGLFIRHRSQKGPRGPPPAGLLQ
In words: I-A^b binding assay: inhibition of binding of a high-affinity radiolabeled peptide. The conditions noted are these: competition with radiolabeled peptide ROIV (0.1–1 nM); purified I-A^b from LB27.4 B-cell lymphoma; room temperature, 2-day incubation; six concentrations; IC50 approximates Kd. As to the method: We used mass spectrometry to globally characterize Pb antigenic peptides presented by MHC II on the surface of DC (Fig 1A). We immunoprecipitated the MHC II molecules from a splenic DC tumor cell line called MutuDC (Fuertes Marraco et al, 2012), incubated with Pb‐parasitized RBC (pRBC). Peptide‐loaded MHC II are trimers of I‐A^bα chain, I‐A^bβ chain, and antigenic peptide, which, depending on the affinity of the loaded peptide, can remain stable in SDS without prior boiling (Natarajan et al, 1999). To ensure that our protocol allowed the pull‐down of peptide‐MHC II trimers and not just of single I‐A^bβ chain, we compared the migration of eluates with and without prior boiling, confirming that the immunoprecipitated material was SDS‐stable (Fig 1B). Although genetically very close to PbA (Otto et al, 2014), several variants of Pb causing different pathophysiological outcomes have been described (de Souza et al, 2010). Pb K173 (PbK) being the most “distant” from PbA (although SNPs were found only in 469 of […]; Otto et al, 2014), we decided to perform this analysis both with PbA and PbK pRBC. This led to the identification of a total of 372 unique I‐A^b‐eluted peptides, comprising 330 mouse sequences and 42 Pb sequences (Fig 1C, Dataset EV1), derived from 13 putative Pb antigenic proteins (Dataset EV2). In line with the modest level of polymorphisms between PbA and PbK, none of those source antigens was polymorphic. Remarkably, for seven antigens, we recovered multiple peptides containing a core of 11–16 amino acids (aa) and various N‐ or C‐terminal extensions (Dataset EV2). This feature is a typical property of MHC II ligands (Bozzacco et al, 2011; Sofron et al, 2016). For each set of nested peptides, we further analyzed the longest spanning sequence comprising all recovered sequences, for example, NALYNYSIPRPNVTSNL for ETRAMP10.2 (PBANKA_0517000) or […] for LDH (PBANKA_1340100), resulting in a consolidated list of 14 peptides (Table 1). We evaluated the I‐A^b binding affinity of these 14 peptides by quantifying their ability to inhibit binding of a high‐affinity radiolabeled peptide (Sidney et al, 2013).
Purification of I‐A^b MHC II molecules by affinity chromatography and the assay based on the inhibition of binding of a high‐affinity radiolabeled peptide to quantitatively measure peptide binding were described elsewhere (Sidney et al, 2013). Briefly, the mouse B‐cell lymphoma LB27.4 was used as a source of MHC molecules. A high‐affinity radiolabeled peptide (0.1–1 nM; peptide ROIV, sequence YAHAAHAAHAAHAAHAA) was co‐incubated at room temperature with purified MHC in the presence of a cocktail of protease inhibitors and an inhibitor peptide. Following a 2‐day incubation, MHC‐bound radioactivity was determined by capturing MHC/peptide complexes on mAb (Y3JP)‐coated Lumitrac 600 plates (Greiner Bio‐one), and measuring bound cpm using the TopCount (Packard Instrument Co) microscintillation counter. The concentration of peptide yielding 50% inhibition of the binding of the radiolabeled peptide was calculated. Under the conditions utilized, where [label] < [MHC] and IC50 ≥ [MHC], the measured IC50 values are reasonable approximations of the true Kd values. Each competitor peptide was tested at six different concentrations covering a 100,000‐fold range. The “cold” probe was used as a positive control in each experiment.

pIC50: −log10 of the molar value. Where no end group is shown, it is not given here.

INDRNFIATTALSSTEE [AMA1] gave a pIC50 of 6.09.

APSEQTTTPEAATAASN [MSP1] gave a pIC50 of 5.87.

Take DNEYDFSGKAALVYGQ [ATPSYN]: the pIC50 was 6.98.

In the case of NALYNYSIPRPNVTSNL [ETRAMP], the pIC50 is 7.06.

Regarding KILYNSAKPNSDLH [END70], the negative-log IC50 (pIC50) was 6.32.

LIPEYNEAAIMLSEKK [PDI] showed a pIC50 of 6.78.

On to GINHEKYNSSQTIVSNAS [GAPDH.1], for which the pIC50 is 5.62.

GGSTYIAAKVNEAKD [TIM14] had a pIC50 of 6.52.

LHASPYVAPAAAIIEMAE [LDH] had a pIC50 of 6.96.

Regarding SGKVVEENPKAIKSGDS [EF1a], the pIC50 is 5.57.

The sequence TTLGIFRAAVPSGASTG [ENO] showed a negative logarithm of the IC50 (pIC50) of 6.94.

TEVPSLVPPTTNTSHAAPAH [MAHRP] had a negative-log IC50 (pIC50) of 6.06.

LMTTVHASTANQLVV [GAPDH.2] had a pIC50 of 6.01.

As for LSEVVIHPETNYALTG [M1], the pIC50 is 4.80.
